From US8163793B2, “Proline derivatives” (Hoffman-La Roche Inc., priority 2009, dated 2012) come the findings set out here.

Usually pIC50 stands for the IC50 on a negative log10 scale, so that one unit is a factor of ten.

pIC50: −log10 of the molar value.

Assay [1] has as its target Cat L (UniProt P07711). Put plainly: Cathepsin enzyme inhibition assay (fluorogenic peptide substrate Z-Val-Val-Arg-AMC), Cathepsin L. The note with it: enzyme 1 nM, substrate 20 μM, pH 6.5; read-out: CatL IC50. It is filed as biochemical, human and mouse. Summed up: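 Cathepsin L at 1 nM was mixed with compound, then started with 20 μM Z-Val-Val-Arg-AMC in pH 6.5 potassium phosphate with EDTA, Triton X-100 and 5 mM DTT. AMC fluorescence (ex 360/em 465 nm) was followed over 20 min. IC50 is given in μM.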

Assay [2] has as its target Cathepsin S (UniProt P25774). Put plainly: Cathepsin enzyme inhibition assay (fluorogenic peptide substrate Z-Val-Val-Arg-AMC), Cathepsin S. The class given is biochemical, human and mouse. The note with it: enzyme 1 nM, substrate 20 μM, pH 6.5; read-out: CatS IC50. In a few lines:
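Human or mouse cathepsin S (1 nM) was run in 100 mM potassium phosphate pH 6.5 with 5 mM EDTA, 0.001% Triton X-100 and 5 mM DTT. The rise in AMC fluorescence from cleavage was measured, and IC50 values were calculated by standard methods and expressed in μM.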

Consider `N#CC1(NC(=O)[C@@H]2C[C@@H](S(=O)(=O)c3ccc(OCC(F)(F)F)cc3Cl)CN2C(=O)C2(c3ccc(Cl)cc3)CCCCC2)CC1` [Example 314, (2S,4R)-1-[1-(4-Chloro-phenyl)-cyclohexanecarbonyl]-4-[2-chloro-4-(2,2,2-trifluoro-ethoxy)-benzenesulfonyl]-pyrrolidine-2-carboxylic acid (1-cyano-cyclopropyl)-amide], for which the pIC50 in assay [1] was 5.77; in assay [2], 9.43.

Take `N#CC1(NC(=O)[C@@H]2C[C@@H](S(=O)(=O)c3ccccc3Cl)CN2S(=O)(=O)c2ccc(Cl)cc2)CC1` [Example 315, (2S,4R)-4-(2-Chloro-benzenesulfonyl)-1-(4-chloro-benzenesulfonyl)-pyrrolidine-2-carboxylic Acid (1-cyano-cyclopropyl)-amide]: the pIC50 in assay [1] was 5.60; in assay [2] it was 9.41.

Consider `N#CC1(NC(=O)[C@@H]2C[C@@H](S(=O)(=O)c3ccccc3Cl)CN2S(=O)(=O)c2ccc(-c3ccccc3)cc2)CC1` [Example 316, (2S,4R)-1-(Biphenyl-4-sulfonyl)-4-(2-chloro-benzenesulfonyl)-pyrrolidine-2-carboxylic acid (1-cyano-cyclopropyl)-amide], for which the negative logarithm of the IC50 (pIC50) in assay [1] is 5.28; in assay [2] it was 9.52.

Turning to `Cc1cc(N2C[C@H](S(=O)(=O)c3ccccc3C(F)(F)F)C[C@H]2C(=O)NC2(C#N)CC2)n(-c2cccnn2)n1` [Example 317, (2S,4R)-1-(5-Methyl-2-pyridazin-3-yl-2H-pyrazol-3-yl)-4-(2-trifluoromethyl-benzenesulfonyl)-pyrrolidine-2-carboxylic acid (1-cyano-cyclopropyl)-amide], the pIC50 in assay [1] is at most 4.60; in assay [2], 7.64.

`Cc1cc(N2C[C@H](S(=O)(=O)c3ccccc3C(F)(F)F)C[C@H]2C(=O)NC2(C#N)CC2)n(C2CCCCC2)n1` [Example 318, (2S,4R)-1-(2-Cyclohexyl-5-methyl-2H-pyrazol-3-yl)-4-(2-trifluoromethyl-benzenesulfonyl)-pyrrolidine-2-carboxylic acid (1-cyano-cyclopropyl)-amide]: the pIC50 in assay [1] was 4.95; in assay [2], 9.36.

Take `Cc1cc(N2C[C@H](S(=O)(=O)c3ccccc3C(F)(F)F)C[C@H]2C(=O)NC2(C#N)CC2)n(Cc2ccccc2)n1` [Example 319, (2S,4R)-1-(2-Benzyl-5-methyl-2H-pyrazol-3-yl)-4-(2-trifluoromethyl-benzenesulfonyl)-pyrrolidine-2-carboxylic acid (1-cyano-cyclopropyl)-amide]: the negative logarithm of the IC50 (pIC50) was 4.39 in assay [1] and 8.84 in assay [2].

Consider `Cc1cc(N2C[C@H](S(=O)(=O)c3ccccc3C(F)(F)F)C[C@@H]2C(=O)NC2(C#N)CC2)n(C2CCCCC2)n1` [Example 320, (2R,4R)-1-(2-Cyclohexyl-5-methyl-2H-pyrazol-3-yl)-4-(2-trifluoromethyl-benzenesulfonyl)-pyrrolidine-2-carboxylic acid (1-cyano-cyclopropyl)-amide], for which the negative logarithm of the IC50 (pIC50) in assay [1] is at most 4.60; in assay [2], 7.09.

Take `Cc1cc(N2C[C@H](S(=O)(=O)c3ccccc3C(F)(F)F)C[C@@H]2C(=O)NC2(C#N)CC2)n(Cc2ccccc2)n1` [Example 321, (2R,4R)-1-(2-Benzyl-5-methyl-2H-pyrazol-3-yl)-4-(2-trifluoromethyl-benzenesulfonyl)-pyrrolidine-2-carboxylic acid (1-cyano-cyclopropyl)-amide]: the pIC50 in assay [1] is at most 4.60; in assay [2] it was 7.17.

Turning to `Cc1cc(N2C[C@H](S(=O)(=O)c3ccccc3C(F)(F)F)C[C@H]2C(=O)NC2(C#N)CC2)n(C2CCC2)n1` [Example 322, (2S,4R)-1-(2-Cyclobutyl-5-methyl-2H-pyrazol-3-yl)-4-(2-trifluoromethyl-benzenesulfonyl)-pyrrolidine-2-carboxylic acid (1-cyano-cyclopropyl)-amide], the figures for the negative-log IC50 (pIC50) in assay [1] and in assay [2] were 4.55 and 9.52, respectively.
